Test systems include 786-0 renal; ACHN renal; BT-549 breast; EKVX NSCLC; HCT-116 colon; HOP-62 NSCLC; HS 578T breast; K-562 leukemia; MALME-3M melanoma; MDA-MB-231 breast; NCI/ADR-RES ovarian; PC-3 prostate; SF-539 CNS; SK-MEL-5 melanoma; SR leukemia; SW-620 colon; TK-10 renal; UACC-62 melanoma; UACC-257 melanoma.
Test in all cases: inhibition of tumour cell growth, NCI panel, 48 h

Structures are written as SMILES.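 Step 1: Grow cells in 96-well plates. Step 2: Expose to compound for 48 hours at 5 concentrations. Step 3: Interpolate endpoints linearly; if unreached, use highest concentration. Definition used: TGI = concentration required for complete inhibition of growth.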

The record followed here is PubChem BioAssay (NCI).

On to `CC(=O)O[C@H]1C(=O)[C@@]2(C)[C@H]([C@H](OC(=O)c3ccccc3)[C@]3(O)C[C@H](OC(=O)[C@H](O)[C@@H](NC(=O)c4ccccc4)C4CCCCC4)C(C)=C1C3(C)C)[C@]1(OC(C)=O)CO[C@@H]1C[C@@H]2O`, for which the TGI was over 100 µM in the assay with 786-0 renal; over 72.8 µM with ACHN renal; over 100 µM with BT-549 breast; over 100 µM in the assay with EKVX NSCLC; over 44.9 µM with HCT-116 colon; 1.45 µM with HOP-62 NSCLC. The TGI in the assay with HS 578T breast was under 0.01 µM; in the assay with K-562 leukemia it was over 51.9 µM; in the assay with MALME-3M melanoma, 95 µM; with MDA-MB-231 breast, 28.6 µM; in the assay with NCI/ADR-RES ovarian it was 11.4 µM; in the assay on PC-3 prostate, 2.91 µM. Besides, the TGI with SF-539 CNS was 0.0214 µM; with SK-MEL-5 melanoma, 14.9 µM; in the assay with SR leukemia, 25.1 µM; in the assay with SW-620 colon it was over 100 µM; in the assay with TK-10 renal it was 37.4 µM; with UACC-62 melanoma it was 52.2 µM.
In the case of `Brc1ccccc1/C=C\C1(c2ccccc2)OCCO1`, the TGI is 24.3 µM with 786-0 renal; 21.3 µM in the assay with ACHN renal; 39 µM in the assay with BT-549 breast; 30.6 µM with EKVX NSCLC; 11.9 µM in the assay on HCT-116 colon; 27.7 µM in the assay with HOP-62 NSCLC. The TGI was 17.3 µM with HS 578T breast; over 100 µM in the assay with K-562 leukemia; 29.9 µM with MALME-3M melanoma; 25.4 µM in the assay on MDA-MB-231 breast; 32.7 µM with NCI/ADR-RES ovarian; 34.1 µM in the assay on PC-3 prostate. In addition, the TGI in the assay on SF-539 CNS turned out to be 25.7 µM; with SK-MEL-5 melanoma, 29.1 µM; in the assay with SR leukemia it was 8.33 µM; in the assay with TK-10 renal it was 31.7 µM; in the assay with UACC-257 melanoma it was 34.5 µM; in the assay on UACC-62 melanoma, 28 µM.
For the molecule `C[C@H](CCC(=O)O[C@@H]1CC[C@@]2(C)C(CC[C@H]3[C@@H]4CC[C@H]([C@H](C)CCc5nc6ccccc6[nH]5)[C@@]4(C)CC[C@@H]32)C1)[C@H]1CC[C@H]2[C@@H]3CCC4C[C@H](O)CC[C@]4(C)[C@H]3CC[C@]12C` (some centres not stated), the TGI in the assay on 786-0 renal, with ACHN renal, in the assay on BT-549 breast, in the assay with EKVX NSCLC, with HCT-116 colon and with HOP-62 NSCLC was over 100 µM throughout. In addition, the TGI in the assay with HS 578T breast, with K-562 leukemia, in the assay with MDA-MB-231 breast, in the assay with NCI/ADR-RES ovarian, in the assay on PC-3 prostate and in the assay with SF-539 CNS was over 100 µM in each case. The TGI in the assay with SK-MEL-5 melanoma, with SR leukemia, in the assay on SW-620 colon, with TK-10 renal, in the assay with UACC-257 melanoma and in the assay with UACC-62 melanoma was over 100 µM in each case.
For the molecule `O=C(Nc1ccc(Cl)c(Cl)c1)C(=O)C(C1OC(=O)c2ccccc21)[N+](=O)[O-]` (configuration not stated), the TGI with 786-0 renal, with ACHN renal, in the assay with BT-549 breast, in the assay with EKVX NSCLC, with HCT-116 colon and with HOP-62 NSCLC was over 100 µM throughout. The TGI with HS 578T breast, in the assay on MALME-3M melanoma, in the assay on MDA-MB-231 breast, in the assay on NCI/ADR-RES ovarian, in the assay on PC-3 prostate and in the assay on SF-539 CNS was over 100 µM each time. Besides, the TGI with SK-MEL-5 melanoma, with SR leukemia, in the assay with SW-620 colon, with TK-10 renal, in the assay on UACC-257 melanoma and in the assay on UACC-62 melanoma was over 100 µM throughout.
Regarding `C/C(=N\Nc1nc2ccccc2[nH]1)c1ccncn1`, the TGI was over 100 µM in the assay with 786-0 renal; 0.986 µM with ACHN renal; over 100 µM in the assay on BT-549 breast; 43.2 µM in the assay with EKVX NSCLC; 26.8 µM in the assay on HCT-116 colon; 1.3 µM in the assay with HOP-62 NSCLC. In addition, the TGI with HS 578T breast was over 100 µM; in the assay on K-562 leukemia, over 100 µM; with MALME-3M melanoma, over 100 µM; with MDA-MB-231 breast it was over 100 µM; in the assay on NCI/ADR-RES ovarian it was 4.54 µM; in the assay on PC-3 prostate, over 100 µM. For the same molecule, the TGI in the assay with SF-539 CNS was over 100 µM; in the assay on SK-MEL-5 melanoma, 13.4 µM; with SR leukemia, over 100 µM; in the assay with SW-620 colon, over 100 µM; in the assay on TK-10 renal, over 100 µM; in the assay on UACC-257 melanoma, over 31.6 µM.
Turning to `CN(C)C(=S)N/N=C\C(=N/NC(=S)N(C)C)c1ccccc1`, the TGI is over 100 µM with 786-0 renal; over 100 µM in the assay on ACHN renal; over 100 µM with BT-549 breast; over 100 µM with EKVX NSCLC; over 46.5 µM in the assay with HCT-116 colon; over 100 µM in the assay on HOP-62 NSCLC. For the same molecule, the TGI in the assay with HS 578T breast was over 29.9 µM; with K-562 leukemia, over 100 µM; in the assay on MALME-3M melanoma it was over 57.5 µM; in the assay on MDA-MB-231 breast it was over 100 µM; with NCI/ADR-RES ovarian it was over 25.1 µM; in the assay on PC-3 prostate it was over 100 µM. The TGI with SF-539 CNS, in the assay on SK-MEL-5 melanoma, in the assay on SW-620 colon, in the assay with TK-10 renal, with UACC-257 melanoma and in the assay with UACC-62 melanoma was over 100 µM each time.
Regarding `COC(=O)c1cc(C)n2c1CS[C@@H]2c1ccccc1`, the TGI in the assay on 786-0 renal is over 100 µM; in the assay with ACHN renal it was over 100 µM; in the assay on BT-549 breast, 82.8 µM; in the assay with EKVX NSCLC, 93.2 µM; in the assay with HCT-116 colon, over 100 µM; in the assay on HOP-62 NSCLC, over 100 µM. The TGI with HS 578T breast is over 100 µM; in the assay with K-562 leukemia, over 100 µM; in the assay on MALME-3M melanoma it was over 100 µM; in the assay with MDA-MB-231 breast, over 100 µM; in the assay with NCI/ADR-RES ovarian, 87 µM; in the assay on PC-3 prostate, over 100 µM. The TGI with SK-MEL-5 melanoma is 44.3 µM; in the assay on SR leukemia, 54.6 µM; in the assay on SW-620 colon, over 100 µM; in the assay with TK-10 renal it was over 100 µM; with UACC-257 melanoma, over 100 µM.
On to `O=C(Cn1c(C(=O)/C=C/c2ccco2)nc2ccccc21)c1ccc(Cl)cc1`, for which the TGI with 786-0 renal is 31.4 µM; with ACHN renal, over 100 µM; in the assay on BT-549 breast it was 42.9 µM; in the assay on HCT-116 colon, 39.9 µM; in the assay on HOP-62 NSCLC, over 100 µM; in the assay on HS 578T breast, 24.6 µM. For the same molecule, the TGI in the assay with K-562 leukemia is 51 µM; in the assay on MALME-3M melanoma, 40.2 µM; in the assay on MDA-MB-231 breast, 59.8 µM; with NCI/ADR-RES ovarian, 30.4 µM; in the assay with PC-3 prostate, 44.2 µM; in the assay on SF-539 CNS, over 100 µM. Besides, the TGI in the assay on SK-MEL-5 melanoma is 97.1 µM; with SR leukemia it was 16.4 µM; in the assay with SW-620 colon, over 100 µM; in the assay on TK-10 renal, 85.8 µM; in the assay with UACC-257 melanoma, 51.9 µM; in the assay with UACC-62 melanoma it was over 100 µM.
As to `O=C1C=C(c2c(-c3ccccc3)[nH]c3ccccc23)C(=O)N1c1ccccc1`, the TGI was found to be 21.1 µM in the assay on 786-0 renal; 71.4 µM in the assay on ACHN renal; 24.1 µM in the assay on BT-549 breast; 38.5 µM with EKVX NSCLC; 19.6 µM with HCT-116 colon; 1.06 µM with HOP-62 NSCLC. For the same molecule, the TGI was determined as 52.8 µM in the assay on HS 578T breast; 29.9 µM with K-562 leukemia; 23.9 µM in the assay with MALME-3M melanoma; 25.6 µM in the assay on MDA-MB-231 breast; 66.2 µM in the assay with NCI/ADR-RES ovarian; 21.8 µM in the assay on PC-3 prostate. The TGI was found to be 39.2 µM with SF-539 CNS; 20.9 µM with SK-MEL-5 melanoma; 18.4 µM with SW-620 colon; 30.3 µM in the assay with TK-10 renal; 30.6 µM in the assay with UACC-257 melanoma; 27.9 µM with UACC-62 melanoma.
For the molecule `CC1CC(=O)N2CCCNC2=C1C#N` (configuration not stated), the TGI in the assay on 786-0 renal, in the assay on BT-549 breast, in the assay with EKVX NSCLC, in the assay on HCT-116 colon, in the assay with HOP-62 NSCLC and in the assay on HS 578T breast was over 100 µM in each case. In addition, the TGI with K-562 leukemia, with MALME-3M melanoma, in the assay on MDA-MB-231 breast, with NCI/ADR-RES ovarian, with PC-3 prostate and in the assay on SF-539 CNS was over 100 µM in each case. Moreover, the TGI in the assay with SK-MEL-5 melanoma, in the assay with SR leukemia, in the assay with SW-620 colon, with TK-10 renal, in the assay with UACC-257 melanoma and in the assay with UACC-62 melanoma was over 100 µM in each case.
Regarding `Cc1ccc(-c2c(C#N)c(-c3ccc([N+](=O)[O-])cc3)c(C#N)c(=O)n2NS(=O)(=O)c2ccc(C)cc2)cc1`, the TGI in the assay on 786-0 renal, with ACHN renal, in the assay on BT-549 breast, in the assay with EKVX NSCLC, with HCT-116 colon and with HOP-62 NSCLC was over 100 µM in each case. Moreover, the TGI in the assay on HS 578T breast was 95.8 µM; with K-562 leukemia, over 100 µM; with MALME-3M melanoma it was over 100 µM; with MDA-MB-231 breast it was over 100 µM; in the assay with NCI/ADR-RES ovarian it was over 100 µM; with PC-3 prostate it was over 100 µM. Also, the TGI is over 100 µM in the assay on SF-539 CNS; 48.7 µM with SK-MEL-5 melanoma; over 100 µM with SW-620 colon; over 100 µM with TK-10 renal; over 100 µM in the assay on UACC-257 melanoma; over 100 µM in the assay with UACC-62 melanoma.
